# In PubChem BioAssay AID230 (DTP/NCI, 2004):
# Several values for one entry are separate records, joined by “and”; a condition that tells them apart may be missing. Identical values can stand only once. Toxic doses and inconclusive results are not listed.
# Tested on: C3H/He mice, Gardner lymphosarcoma 6C3HED ip, survival T/C
# Test: NCI In Vivo Anticancer Drug Screen. Data for tumor model Lymphosarcoma Gardner 6C3HED (intraperitoneal) in C3H/He mice
# Details: higher = longer survival
# Description: The antitumor activity of compounds was measured in mice bearing transplantable tumors. Survival or tumor size were measured and the results are expressed as the measurement made in the treated group (T) divided by the measurement made in the vehicle treated control group (C). The tumor model used in this assay is Lymphosarcoma Gardner 6C3HED (intraperitoneal) in C3H/He mice
# [1] = endpoint: survival time, mean or median, dose: 0.5 mg/kg/injection, schedule: Q01DX010 (ip), vehicle: saline
# [2] = endpoint: survival time, mean or median, dose: 1.0 mg/kg/injection, schedule: Q01DX010 (ip), vehicle: saline
# [3] = endpoint: survival time, mean or median, dose: 2.0 mg/kg/injection, schedule: Q01DX010 (ip), vehicle: saline
# [4] = endpoint: survival time, mean or median, dose: 4.0 mg/kg/injection, schedule: Q01DX010 (ip), vehicle: saline
# [5] = endpoint: survival time, mean or median, dose: 3.13 mg/kg/injection, schedule: Q01DX010 (ip), vehicle: saline
# [6] = endpoint: survival time, mean or median, dose: 6.25 mg/kg/injection, schedule: Q01DX010 (ip), vehicle: saline
# [7] = endpoint: survival time, mean or median, dose: 12.5 mg/kg/injection, schedule: Q01DX010 (ip), vehicle: saline
# [8] = endpoint: survival time, mean or median, dose: 25.0 mg/kg/injection, schedule: Q01DX010 (ip), vehicle: saline
# [9] = endpoint: survival time, mean or median, dose: 250.0 micrograms/kg/injection, schedule: Q01DX010 (ip), vehicle: saline
# [10] = endpoint: survival time, mean or median, dose: 16.0 mg/kg/injection, schedule: Q01DX010 (ip), vehicle: saline
# [11] = endpoint: survival time, mean or median, dose: 50.0 mg/kg/injection, schedule: Q01DX010 (ip), vehicle: saline
# [12] = endpoint: survival time, mean or median, dose: 100.0 mg/kg/injection, schedule: Q01DX010 (ip), vehicle: saline
# [13] = endpoint: survival time, mean or median, dose: 200.0 mg/kg/injection, schedule: Q01DX010 (ip), vehicle: saline
# [14] = endpoint: survival time, mean or median, dose: 5.0 mg/kg/injection, schedule: Q01DX010 (ip), vehicle: saline
# [15] = endpoint: survival time, mean or median, dose: 20.0 mg/kg/injection, schedule: Q01DX010 (ip), vehicle: saline
# [16] = endpoint: survival time, mean or median, dose: 40.0 mg/kg/injection, schedule: Q01DX010 (ip), vehicle: saline
# [17] = endpoint: survival time, mean or median, dose: 62.5 mg/kg/injection, schedule: Q01DX010 (ip), vehicle: saline
# [18] = endpoint: survival time, mean or median, dose: 125.0 mg/kg/injection, schedule: Q01DX010 (ip), vehicle: saline
# [19] = endpoint: survival time, mean or median, dose: 10.0 mg/kg/injection, schedule: Q01DX010 (ip), vehicle: saline
smiles,measurement,setting,value
Nc1nc(=S)c2ncn(C3OC(CO)C(O)C3O)c2[nH]1 (stereo not given),T/C,"endpoint: median survival time, dose: 0.5 mg/kg/injection, schedule: Q01DX009 (ip), vehicle: saline",114 % of control
same,T/C,"endpoint: median survival time, dose: 1.0 mg/kg/injection, schedule: Q01DX009 (ip), vehicle: saline",100 % of control
same,T/C,"endpoint: median survival time, dose: 2.0 mg/kg/injection, schedule: Q01DX009 (ip), vehicle: saline",105 % of control
same,T/C,"endpoint: median survival time, dose: 4.0 mg/kg/injection, schedule: Q01DX009 (ip), vehicle: saline",94 % of control
same,T/C,"endpoint: median survival time, dose: 8.0 mg/kg/injection, schedule: Q01DX009 (ip), vehicle: saline",96 % of control
same,T/C,[1],119 % of control
same,T/C,[2],112 % of control and 115 % of control
same,T/C,[3],100 % of control and 111 % of control
same,T/C,[4],96 % of control
C[C@H]1C(=O)O[C@@H]2CCN3CC=C(COC(=O)[C@](C)(O)[C@@]1(C)O)[C@H]23,T/C,[5],100 % of control and 107 % of control
same,T/C,[6],93 % of control and 103 % of control
same,T/C,[7],100 % of control and 103 % of control
same,T/C,[8],111 % of control
O[C@H](CN1CC1)[C@@H](O)CN1CC1,T/C,"endpoint: survival time, mean or median, dose: 125.0 micrograms/kg/injection, schedule: Q01DX010 (ip), vehicle: saline",103 % of control
same,T/C,[9],114 % of control and 203 % of control
same,T/C,"endpoint: survival time, mean or median, dose: 500.0 micrograms/kg/injection, schedule: Q01DX010 (ip), vehicle: saline",169 % of control
CN(C)c1ccc(/C=C/c2ccnc3ccccc23)cc1,T/C,[10],90 % of control
same,T/C,"endpoint: survival time, mean or median, dose: 32.0 mg/kg/injection, schedule: Q01DX010 (ip), vehicle: saline",93 % of control
NC(CC(=O)O)C(=O)O (stereo not given),T/C,"endpoint: median survival time, dose: 50.0 mg/kg/injection, schedule: Q01DX005 (ip), vehicle: water",88 % of control
same,T/C,"endpoint: median survival time, dose: 100.0 mg/kg/injection, schedule: Q01DX005 (ip), vehicle: water",92 % of control
same,T/C,"endpoint: median survival time, dose: 200.0 mg/kg/injection, schedule: Q01DX005 (ip), vehicle: water",92 % of control
CSc1ncnc2nc[nH]c12,T/C,[8],100 % of control
same,T/C,[11],93 % of control and 100 % of control
same,T/C,[12],93 % of control and 100 % of control
same,T/C,[13],93 % of control and 103 % of control
O=c1[nH]cc(F)c(=O)[nH]1,T/C,"endpoint: median survival time, dose: 13.3 mg/kg/injection, schedule: Q01DX009 (ip), vehicle: saline",222 % of control
same,T/C,"endpoint: median survival time, dose: 20.0 mg/kg/injection, schedule: Q01DX009 (ip), vehicle: saline",222 % of control
same,T/C,"endpoint: median survival time, dose: 27.0 mg/kg/injection, schedule: Q01DX009 (ip), vehicle: saline",203 % of control
same,T/C,[14],110 % of control
same,T/C,[15],283 % of control
same,T/C,[16],203 % of control
CCCCn1cnc2c(=S)nc[nH]c21,T/C,[4],100 % of control
same,T/C,"endpoint: survival time, mean or median, dose: 8.0 mg/kg/injection, schedule: Q01DX010 (ip), vehicle: saline",93 % of control
same,T/C,[10],90 % of control and 92 % of control
COc1ccc2c(c1OC)C(=O)O[C@@H]2[C@H]1c2c(cc3c(c2OC)OCO3)CCN1C,T/C,"endpoint: survival time, mean or median, dose: 31.3 mg/kg/injection, schedule: Q01DX010 (ip), vehicle: saline",90 % of control and 107 % of control
same,T/C,[17],100 % of control
same,T/C,[18],92 % of control
NCC(=O)O,T/C,"endpoint: median survival time, dose: 187.5 mg/kg/injection, schedule: Q04HX020 (ip), vehicle: saline",88 % of control
same,T/C,"endpoint: median survival time, dose: 187.5 mg/kg/injection, schedule: Q06HX020 (ip), vehicle: saline",89 % of control
same,T/C,"endpoint: median survival time, dose: 375.0 mg/kg/injection, schedule: Q04HX020 (ip), vehicle: saline",88 % of control
same,T/C,"endpoint: median survival time, dose: 375.0 mg/kg/injection, schedule: Q06HX020 (ip), vehicle: saline",89 % of control
same,T/C,"endpoint: median survival time, dose: 750.0 mg/kg/injection, schedule: Q04HX020 (ip), vehicle: saline",92 % of control
same,T/C,"endpoint: median survival time, dose: 750.0 mg/kg/injection, schedule: Q06HX020 (ip), vehicle: saline",93 % of control
same,T/C,"endpoint: median survival time, dose: 1500.0 mg/kg/injection, schedule: Q06HX020 (ip), vehicle: saline",69 % of control
NC(=O)n1cccn1,T/C,[8],89 % of control
same,T/C,[11],96 % of control
same,T/C,[12],96 % of control
same,T/C,[13],100 % of control
N=C(N)c1ccc(Nc2ccc(C(=N)N)cc2)cc1,T/C,"endpoint: survival time, mean or median, dose: 0.75 mg/kg/injection, schedule: Q01DX010 (ip), vehicle: saline",103 % of control
same,T/C,"endpoint: survival time, mean or median, dose: 1.5 mg/kg/injection, schedule: Q01DX010 (ip), vehicle: saline",119 % of control
same,T/C,"endpoint: survival time, mean or median, dose: 3.0 mg/kg/injection, schedule: Q01DX010 (ip), vehicle: saline",107 % of control
same,T/C,"endpoint: survival time, mean or median, dose: 6.0 mg/kg/injection, schedule: Q01DX010 (ip), vehicle: saline",100 % of control and 103 % of control
same,T/C,"endpoint: survival time, mean or median, dose: 12.0 mg/kg/injection, schedule: Q01DX010 (ip), vehicle: saline",89 % of control
same,T/C,"endpoint: survival time, mean or median, dose: 24.0 mg/kg/injection, schedule: Q01DX010 (ip), vehicle: saline",96 % of control
CCN(CC)CCCC(C)Nc1c2ccc(Cl)cc2nc2ccc(OC)cc12 (stereo not given),T/C,[5],90 % of control
same,T/C,[6],90 % of control
same,T/C,[8],100 % of control
same,T/C,[11],112 % of control
COc1cc2c(c(OC)c1OC)-c1ccc(OC)c(=O)cc1[C@@H](NC(C)=O)CC2,T/C,"endpoint: survival time, mean or median, dose: 0.01 mg/kg/injection, schedule: Q01DX010 (ip), vehicle: saline",100 % of control
same,T/C,"endpoint: survival time, mean or median, dose: 0.02 mg/kg/injection, schedule: Q01DX010 (ip), vehicle: saline",103 % of control
same,T/C,"endpoint: survival time, mean or median, dose: 0.04 mg/kg/injection, schedule: Q01DX010 (ip), vehicle: saline",100 % of control
same,T/C,"endpoint: survival time, mean or median, dose: 0.08 mg/kg/injection, schedule: Q01DX010 (ip), vehicle: saline",121 % of control
Cn1c(N)nc2nc[nH]c2c1=S,T/C,[19],96 % of control and 103 % of control
same,T/C,[15],96 % of control and 107 % of control
same,T/C,[16],100 % of control and 107 % of control
same,T/C,"endpoint: survival time, mean or median, dose: 80.0 mg/kg/injection, schedule: Q01DX010 (ip), vehicle: saline",96 % of control
CC(=O)Nc1ccc2nc3ccc(NC(C)=O)cc3[n+](-c3ccccc3)c2c1,T/C,[7],107 % of control
same,T/C,[8],107 % of control
same,T/C,[12],89 % of control
Nc1ncccc1C(=O)O,T/C,[17],100 % of control
same,T/C,[18],100 % of control
same,T/C,"endpoint: survival time, mean or median, dose: 250.0 mg/kg/injection, schedule: Q01DX010 (ip), vehicle: saline",107 % of control
same,T/C,"endpoint: survival time, mean or median, dose: 500.0 mg/kg/injection, schedule: Q01DX010 (ip), vehicle: saline",96 % of control
OCCOCCN1CCN(CCCN2c3ccccc3Sc3ccc(C(F)(F)F)cc32)CC1,T/C,[14],90 % of control
same,T/C,[15],90 % of control
Nc1nc(F)nc2c1ncn2C1OC(CO)C(O)C1O (stereo not given),T/C,[1],87 % of control
same,T/C,[2],87 % of control
same,T/C,[9],86 % of control
N=C(N)SCc1c2ccccc2c(CSC(=N)N)c2ccccc12,T/C,"endpoint: survival time, mean or median, dose: 2.5 mg/kg/injection, schedule: Q01DX010 (ip), vehicle: saline",300 % of control
same,T/C,[14],300 % of control
same,T/C,[19],300 % of control
same,T/C,[15],300 % of control
same,T/C,[16],192 % of control
CS(=O)(=O)OCCCCOS(C)(=O)=O,T/C,"endpoint: survival time, mean or median, dose: 1.56 mg/kg/injection, schedule: Q01DX010 (ip), vehicle: saline",95 % of control
same,T/C,[5],90 % of control
same,T/C,[6],95 % of control
same,T/C,[7],104 % of control
CO[C@@H]1[C@@H](OC2OC(C)C(OC3CC(C)(O)C(OC(=O)CC(C)C)C(C)O3)C(N(C)C)C2O)[C@@H](CC=O)C[C@@H](C)C(=O)/C=C/C2O[C@H]2C[C@@H](C)OC(=O)C[C@H]1OC(C)=O (stereo not given in full),T/C,"endpoint: survival time, mean or median, dose: 18.8 mg/kg/injection, schedule: Q01DX010 (ip), vehicle: saline",94 % of control
same,T/C,"endpoint: survival time, mean or median, dose: 37.5 mg/kg/injection, schedule: Q01DX010 (ip), vehicle: saline",102 % of control
NC(=O)N(CCCl)N=O,T/C,[1],204 % of control
same,T/C,[2],228 % of control
same,T/C,[3],161 % of control
same,T/C,[4],100 % of control
N[C@@H](Cc1ccc(N(CCCl)CCCl)cc1)C(=O)O,T/C,[1],106 % of control
same,T/C,[3],150 % of control
same,T/C,[4],93 % of control
COC1C(OC(=O)/C=C/C=C/C=C/C=C/C(=O)O)CCC2(CO2)C1C1(C)OC1CC=C(C)C (stereo not given),T/C,[7],102 % of control
same,T/C,[8],110 % of control
same,T/C,[11],110 % of control
same,T/C,[12],100 % of control
